Data: US9931350B2, “Anti-infective and osteogenic compositions and methods of use” (BRIGHAM YOUNG UNIVERSITY, priority 2014, dated 2018)
≈ marks a conversion by molar mass, not a printed value.

Key:
[1] = tested on: methicillin-resistant S. aureus (MRSA); assay: MIC against methicillin-resistant S. aureus; type: cell-based; details: Staphylococcus aureus, TSB, 37° C., 24 hours
Description: (§1) Representative Procedure for Measuring MIC Values: A suspension is prepared of bacteria containing ˜10^6CFU (colony forming units)/mL from a culture incubated in TSB at 37° C. for 24 hours. Aliquots of 1 mL of the suspension are added to test tubes containing 1 mL TSB and incrementally varied concentrations of CSA compound. The samples are subjected to stationary incubation at 37° C. for 24 hours. Sample turbidity is determined by measuring absorption at 760 nm (HP 8453 UV-Visible Chemstation, Hewlett Packard). Additionally, an alliquot from each of the samples showing no measurable turbidity is subcultured on TSA plates (alliquots were diluted to provide fewer than 300 CFU). Colonies that grow on the subculture after overnight incubation are counted and the number of CFU/mL in the samples is calculated. The calculated values are compared to the number of CFU/mL in the original inoculum. MIC values are determined as the concentrations of the studied compounds at which the number of CFU/mL remained constant or decreased after incubation for 24 hours. CSA compounds were screened against methicillin-resistant S. aureus (MRSA) and tobramycin-resistant P. aeruginosa (TRPA).

[2] = tested on: tobramycin-resistant P. aeruginosa (TRPA); assay: MIC against tobramycin-resistant P. aeruginosa; type: cell-based; details: Pseudomonas aeruginosa; TSB, 37° C., 24 hours
Description: as §1

[3] = tested on: ectopic bone formation; assay: Mammalian ectopic bone formation model; type: in vivo, mouse
Text: Bone formation was examined by XR (Faxitron) and quantified by microCT (Skyscan 1174). Bone nodules were also examined by histology.

[4] = tested on: open fracture; assay: Mammalian open fracture model, without bacteria inoculation; type: in vivo, rats
Text: (§2) In this model, infection was initiated by delivery of 10^4 CFU of pathogenic Staphlococcus aureus in ACS at the time of surgery. […] The primary outcome measure was the number of animals culled with infected fractures. Animal health and radiographic bone healing were monitored by an experienced veterinarian in a blinded fashion to inoculation or treatment. Animals diagnosed as having progressively deteriorating condition with XRs showing evidence of infection were culled and infection confirmed by culture swab post-mortem. Secondary outcome measures included union at 3 weeks and 6 weeks (excluding pin-slippage), and bone callus microCT measures at 6 weeks.

[5] = tested on: Staphlococcus aureus; assay: Mammalian open fracture model, inoculated with S. aureus; type: in vivo, rats
Text: as §2

For `CCCCCN(CCCCC)CCC[C@@H](C)[C@H]1CC[C@H]2[C@@H]3[C@H](OCCCN)C[C@@H]4C[C@H](OCCCN)CC[C@]4(C)[C@H]3C[C@H](OCCCN)[C@]12C` [CSA-90], which MIC [1] is on record?
Its MIC is 0.6 µg/mL (≈ 0.851 µM).

What about the MIC [2] of the same compound?
The MIC was 3 µg/mL (≈ 4.25 µM).

What about the “Mean bone volume by microCT” value ([3]; 25 μg CSA-90 added to 10 μg rhBMP-2 in ACS, P=0.02) of the same compound?
The value was “significantly increased”.

What about the “Mean bone volume by microCT” value ([3]; 250 μg CSA-90 added to 10 μg rhBMP-2 in ACS, P<0.01) of the same compound?
The value was “significantly increased”.

What about the “Osteoclast number, histological assessment” value ([3]; CSA-90 treatment) of the same compound?
Its value is “no significant decrease”.

What about the “Histological assessment of bone nodules” value ([3]; rhBMP-2 treated groups, CSA-90 treatment alone (250 μg)) of the same compound?
Its value is “evidence of localized tissue mineralization”.

And the “Union rate at 3 weeks” value ([4]; 3 weeks, treated groups with and without inoculation)?
Its value is about 50%.

What about the “Union rate by 6 weeks” value ([4]; 6 weeks) of the same compound?
Its value is “increased but not to 100%”.

And the “Pin Slip Cull Rate” value ([4]; no bacteria)?
The value was 0%.

And the “Infected Cull Rate” value ([4]; no bacteria, 250 μg CSA-90 and/or 10 μg rhBMP-2 via ACS)?
The value was 0%.

And the “# Infected Culls” value ([4]; no bacteria, animals/group)?
Its value is 0/6.

What about the “# Pin Slips” value ([4]; no bacteria, animals/group) of the same compound?
Its value is 0/6.

What about the “Pin Slip Cull Rate” value ([5]; 10^4 cfu Staph) of the same compound?
The value was 20%.

And the “Infected Cull Rate” value ([5]; 10^4 cfu Staph, 250 μg CSA-90 and/or 10 μg rhBMP-2 via ACS)?
The value was 0%.

What about the “# Infected Culls” value ([5]; 10^4 cfu Staph, animals/group) of the same compound?
The value was 0/5.

And the “# Pin Slips” value ([5]; 10^4 cfu Staph, animals/group)?
The value was 1/5.

What about the “Animals culled with a pin slip (no infection seen in culture)” value ([5]; inoculated group) of the same compound?
The value was “one”.

What about the “Animals culled with infected fractures” value ([5]; inoculated with S. aureus) of the same compound?
Its value is “no infected culls”.

Which results are given for `CCCCCCCCN(CCCCCCCC)CCC[C@@H](C)[C@H]1CC[C@H]2[C@@H]3[C@H](OCCCN)C[C@@H]4C[C@H](OCCCN)CC[C@]4(C)[C@H]3C[C@H](OCCCN)[C@]12C` [CSA-91]?
MIC [1]: 5 µg/mL (≈ 6.33 µM); MIC [2]: 6 µg/mL (≈ 7.6 µM)
